Laboratory results as given in paper PMC11435058, “Synthesis of New Thiazole-Privileged Chalcones as Tubulin Polymerization Inhibitors with Potential Anticancer Activities” (Pharmaceuticals, 2024).
Where two headings read alike, the source gives them in different places.

Key:
ACHN = assay: NCI-60 anticancer screen (SRB; single dose and five doses); settings: Homo sapiens
CAKI-1 = assay: as above; settings: Homo sapiens
SW-620 = assay: as above; settings: Homo sapiens
SR = assay: as above; settings: Homo sapiens
[1] = system: 60 human tumor cell lines panel; assay: NCI-60 anticancer screen, whole panel (means and ranges over the cell lines); assay type: cell-based; settings: for activity at 10 µM: Homo sapiens, 48 h, dose of 10 μM
DU-145 = assay: NCI-60 anticancer screen (SRB; single dose and five doses); settings: Homo sapiens
OVCAR-5 = assay: as above; settings: Homo sapiens
SF-539 = assay: as above; settings: Homo sapiens
IGROV1 = assay: as above; settings: Homo sapiens
SK-OV-3 = assay: as above; settings: Homo sapiens
K-562 = assay: as above; settings: Homo sapiens
MDA-MB-231/ATCC = assay: as above; settings: Homo sapiens
SN12C = assay: as above; settings: Homo sapiens
KM12 = assay: as above; settings: Homo sapiens
SK-MEL-28 = assay: as above; settings: Homo sapiens
NCI/ADR-RES = assay: as above; settings: Homo sapiens
MDA-MB-435 = assay: as above; settings: Homo sapiens
NCI-H522 = assay: as above; settings: Homo sapiens
SNB-75 = assay: as above; settings: Homo sapiens, SNB-75, 48 h, read-out: Growth Percentage
CCRF-CEM = assay: NCI-60 anticancer screen (SRB; single dose 10 μM and five doses); settings: Homo sapiens
EKVX = assay: NCI-60 anticancer screen (SRB; single dose and five doses); settings: Homo sapiens
HT29 = assay: as above; settings: Homo sapiens
HOP-92 = assay: as above; settings: Homo sapiens
HS 578T = assay: as above; settings: Homo sapiens
PC-3 = assay: as above; settings: Homo sapiens
OVCAR-3 = assay: cells; settings: Homo sapiens
A498 = assay: NCI-60 anticancer screen (SRB; single dose and five doses); settings: Homo sapiens
RXF 393 = assay: as above; settings: Homo sapiens
A549/ATCC = assay: as above; settings: Homo sapiens
[2] = 48 h, read-out: Growth Percentage
[3] = five doses, mean graph midpoint over all cell lines

Cc1[nH]c(=S)sc1C(=O)/C=C/c1ccc(F)cc1 [2c, (E)-3-(4-Fluorophenyl)-1-(4-Methyl-2-Thioxo-2,3-Dihydrothiazol-5-yl)Prop-2-En-1-One]
GI50 (ACHN): 7.02 µM | activity at 10 µM (ACHN; [2]): 47.2% | CC50 (ACHN; read-out: LC50): 44.3 µM | IC (TGI) (ACHN; read-out: TGI): 19.6 µM | GI50 (CAKI-1; CAKI-1): 6.89 µM | activity at 10 µM (CAKI-1; CAKI-1, 48 h, read-out: Growth Percentage): 31.6% | CC50 (CAKI-1; CAKI-1, read-out: LC50): 45.4 µM | IC (TGI) (CAKI-1; CAKI-1, read-out: TGI): 20.2 µM | GI50 (SW-620; SW-620): 3.37 µM | activity at 10 µM (SW-620; SW-620, 48 h, read-out: Growth Percentage): 13.8% | CC50 (SW-620; SW-620, read-out: LC50): 49.3 µM | IC (TGI) (SW-620; SW-620, read-out: TGI): 15 µM | GI50 (SR): 3.19 µM | activity at 10 µM (SR; [2]): 18.3% | CC50 (SR; read-out: LC50): > 100 µM | IC (TGI) (SR; read-out: TGI): > 100 µM | activity at 10 µM ([1]; mean over the tested cell lines, read-out: Mean growth percentage): 36.7% | activity at 10 µM ([1]; range over the cell lines, read-out: growth percentages against most of the tested cells (lowest to highest)): -13.6 to 119% | Log10GI50 _MID [1, 3]: -5.23 Molar | Log10LC50 _MID [1, 3]: -4.26 Molar | Log10TGI _MID [1, 3]: -4.65 Molar | GI50 (DU-145; DU-145): 4.32 µM | activity at 10 µM (DU-145; DU-145, 48 h, read-out: Growth Percentage): 20.3% | CC50 (DU-145; DU-145, read-out: LC50): 39.9 µM | IC (TGI) (DU-145; DU-145, read-out: TGI): 15.7 µM | GI50 (OVCAR-5; OVCAR-5): 15.6 µM | activity at 10 µM (OVCAR-5; OVCAR-5, 48 h, read-out: Growth Percentage): 119% | CC50 (OVCAR-5; OVCAR-5, read-out: LC50): 57.7 µM | IC (TGI) (OVCAR-5; OVCAR-5, read-out: TGI): 30 µM | GI50 (SF-539; SF-539): 2.94 µM | activity at 10 µM (SF-539; SF-539, 48 h, read-out: Growth Percentage): -4.61% | IC (TGI) (SF-539; SF-539, read-out: TGI): 10.8 µM | GI50 (IGROV1; IGROV-1): 4.93 µM | activity at 10 µM (IGROV1; IGROV-1, 48 h, read-out: Growth Percentage): 51.2% | CC50 (IGROV1; IGROV-1, read-out: LC50): 62.3 µM | IC (TGI) (IGROV1; IGROV-1, read-out: TGI): 19.7 µM | GI50 (SK-OV-3; SK-OV-3): 11 µM | CC50 (SK-OV-3; SK-OV-3, read-out: LC50): 61.8 µM | IC (TGI) (SK-OV-3; SK-OV-3, read-out: TGI): 26.1 µM | GI50 (K-562; K562): 3.25 µM | activity at 10 µM (K-562; K562, 48 h, read-out: Growth Percentage): 20.4% | CC50 (K-562; K562, read-out: LC50): > 100 µM | IC (TGI) (K-562; K562, read-out: TGI): 48.8 µM | GI50 (MDA-MB-231/ATCC; MDA-MB-231): 15.7 µM | activity at 10 µM (MDA-MB-231/ATCC; MDA-MB-231, 48 h, read-out: Growth Percentage): 29.7% | CC50 (MDA-MB-231/ATCC; MDA-MB-231, read-out: LC50): 66.1 µM | IC (TGI) (MDA-MB-231/ATCC; MDA-MB-231, read-out: TGI): 32.2 µM | GI50 (SN12C): 3.95 µM | activity at 10 µM (SN12C; [2]): 24.1% | CC50 (SN12C; read-out: LC50): 46.7 µM | IC (TGI) (SN12C; read-out: TGI): 17 µM | GI50 (KM12; KM12): 4.28 µM | activity at 10 µM (KM12; KM12, 48 h, read-out: Growth Percentage): 6.85% | CC50 (KM12; KM12, read-out: LC50): 41 µM | IC (TGI) (KM12; KM12, read-out: TGI): 15.4 µM | GI50 (SK-MEL-28; SK-MEL-28): 11.8 µM | activity at 10 µM (SK-MEL-28; SK-MEL-28, 48 h, read-out: Growth Percentage): 50.6% | CC50 (SK-MEL-28; SK-MEL-28, read-out: LC50): 51.4 µM | IC (TGI) (SK-MEL-28; SK-MEL-28, read-out: TGI): 24.7 µM | GI50 (NCI/ADR-RES): 5.92 µM | activity at 10 µM (NCI/ADR-RES; [2]): -10.8% | CC50 (NCI/ADR-RES; read-out: LC50): 85 µM | IC (TGI) (NCI/ADR-RES; read-out: TGI): 24.9 µM | GI50 (MDA-MB-435; MDA-MB-435): 4.24 µM | activity at 10 µM (MDA-MB-435; MDA-MB-435, 48 h, read-out: Growth Percentage): 4.67% | CC50 (MDA-MB-435; MDA-MB-435, read-out: LC50): 48.7 µM | IC (TGI) (MDA-MB-435; MDA-MB-435, read-out: TGI): 17.5 µM | GI50 (NCI-H522; NCI-H522): 8.63 µM | activity at 10 µM (NCI-H522; NCI-H522, 48 h, read-out: Growth Percentage): 44.2% | CC50 (NCI-H522; NCI-H522, read-out: LC50): 46.8 µM | IC (TGI) (NCI-H522; NCI-H522, read-out: TGI): 21.2 µM | activity at 10 µM (SNB-75): 36.5% | GI50 (CCRF-CEM): 3.68 µM | activity at 10 µM (CCRF-CEM; [2]): -0.21% | IC (TGI) (CCRF-CEM; read-out: TGI): > 100 µM | GI50 (EKVX): 12.8 µM | activity at 10 µM (EKVX; [2]): 51% | CC50 (EKVX; read-out: LC50): 64.6 µM | IC (TGI) (EKVX; read-out: TGI): 28.7 µM | GI50 (HT29; HT-29): 10.6 µM | activity at 10 µM (HT29; HT-29, 48 h, read-out: Growth Percentage): 73.3% | CC50 (HT29; HT-29, read-out: LC50): 52.4 µM | IC (TGI) (HT29; HT-29, read-out: TGI): 23.6 µM | GI50 (HOP-92; HOP-92): 3.35 µM | activity at 10 µM (HOP-92; HOP-92, 48 h, read-out: Growth Percentage): 45.4% | CC50 (HOP-92; HOP-92, read-out: LC50): 56 µM | IC (TGI) (HOP-92; HOP-92, read-out: TGI): 15.8 µM | GI50 (HS 578T): 13.2 µM | activity at 10 µM (HS 578T; [2]): 95.3% | CC50 (HS 578T; read-out: LC50): > 100 µM | IC (TGI) (HS 578T; read-out: TGI): 40.2 µM | GI50 (PC-3; PC-3): 5.82 µM | activity at 10 µM (PC-3; PC-3, 48 h, read-out: Growth Percentage): 43.4% | CC50 (PC-3; PC-3, read-out: LC50): > 100 µM | IC (TGI) (PC-3; PC-3, read-out: TGI): 29.7 µM | GI50 (OVCAR-3; OVCAR-3): 2.42 µM | activity at 10 µM (OVCAR-3; OVCAR-3, 48 h, read-out: Growth Percentage): -10.9% | CC50 (OVCAR-3; OVCAR-3, read-out: LC50): 24.5 µM | IC (TGI) (OVCAR-3; OVCAR-3, read-out: TGI): 6.81 µM | GI50 (A498; A498): 13.6 µM | activity at 10 µM (A498; A498, 48 h, read-out: Growth Percentage, A498, dose of 10 μM): 115% | CC50 (A498; A498, read-out: LC50): 52.6 µM | IC (TGI) (A498; A498, read-out: TGI): 26.8 µM | GI50 (RXF 393; RXF 393): 3.02 µM | activity at 10 µM (RXF 393; RXF 393, 48 h, read-out: Growth Percentage): 23.2% | CC50 (RXF 393; RXF 393, read-out: LC50): 37.2 µM | IC (TGI) (RXF 393; RXF 393, read-out: TGI): 13 µM | GI50 (A549/ATCC; A549): 12.4 µM | activity at 10 µM (A549/ATCC; A549, 48 h, read-out: Growth Percentage): 56% | CC50 (A549/ATCC; A549, read-out: LC50): 57.7 µM | IC (TGI) (A549/ATCC; A549, read-out: TGI): 26.8 µM
